From US10344279B2, “Methods for the prevention and the treatment of extracapillary glomerulonephritis” (INSERM (Institut National de la Sante et de la Recherche …, priority 2014, dated 2019)
Entries after “also recorded” stand apart in the source; their conditions may differ.

B1: HB-EGF: heparin-binding epidermal growth factor-like growth factor, EGFR ligand (Preprotech) (protein, UniProt Q99075 63-148, looked up)
Heparin-binding EGF-like …: DLQEADLDLLRVTLSSKPQALATPNKEEHGKRKKKGKGLGKKRDPCLRKYKDFCIHGECKYVKELRAPSCICHPGYHGERCHGLSL

Experiments:
[1] = system: phospho-STAT3 (Tyr705); test: Western blot of phospho-STAT3 in primary culture of podocytes; type: cell-based, mouse; settings: 16 hours; AG1478 1 μM, anti-mIL-6 antibody 10 μg/mL, HB-EGF 10 ng/mL
Description: After 4 days of primary culture, podocytes were trypsinized then plated into μ-Dish 35 mm high with Culture-Insert (Ibidi). Ibidi's wounding inserts were used for cell migration studies. The coverage of the 500-μm gap was assessed after 12 hours of culture and podocyte migration area was quantified using ImageJ software. The effects of HB-EGF (10 ng/mL, Preprotech) or AG1478 (1 μM, Calbiochem) or anti-mIL-6 monoclonal antibody MP5-20F3 (10 μg/mL, eBiosciences) or Stattic (2 μM, Calbiochem) on differentiated podocytes was applied during 16 hours. After stimulation, podocytes were scrapped in Phosphosafe buffer for protein extraction or in RLT buffer for total RNA extraction.
After extraction from glomeruli or podocytes with lysis buffer, proteins were quantified by BCA protein assay kit (iNtRON Biotechnology). Samples were resolved on 4-12% Bis-Tris Criterion XT gels (Bio-Rad) then transferred to a polyvinylidene difloride membrane. Membranes were incubated with the appropriate primary antibodies: rabbit anti-phospho-EGFR (Tyr1068) (Cell Signaling Technology), rabbit anti-phospho-STAT3 (Tyr705) (Cell Signaling Technology), goat anti-p57 (Santa Cruz Biotechnology). Protein loading was monitored by using the rat anti-tubulin antibody (Abeam). […] Densitometric analysis with ImageJ software was used for quantification.

[2] = system: phospho-EGFR (Tyr1068); test: Western blot of phospho-EGFR in kidney cortex of NTS-challenged mice; type: in vivo; settings: erlotinib 10 mg/kg/day
Description: After extraction from glomeruli or podocytes with lysis buffer, proteins were quantified by BCA protein assay kit (iNtRON Biotechnology). […] Membranes were incubated with the appropriate primary antibodies: rabbit anti-phospho-EGFR (Tyr1068) (Cell Signaling Technology), rabbit anti-phospho-STAT3 (Tyr705) (Cell Signaling Technology), goat anti-p57 (Santa Cruz Biotechnology). Protein loading was monitored by using the rat anti-tubulin antibody (Abeam). Secondary antibodies were donkey-anti rabbit HRP and donkey-anti rabbit HRP (GE Healthcare Life Sciences). […] Densitometric analysis with ImageJ software was used for quantification.

[3] = system: phospho-STAT3 (Tyr705); test: Western blot of phospho-STAT3 in glomeruli / kidney cortex of NTS-challenged mice; type: in vivo; settings: erlotinib 10 mg/kg/day; NTS-challenged mice
Description: Podocyte-specific disruption of Stat3 mice were generated by crossing podocin-Cre positive mice (63) with Stat3 floxed mice (64) on C57BL6/J background. Their age-matched littermates with no deletion of Stat3 in any cells are considered as controls. […] Stattic (25 mg/kg) was administered in i.p. way every other day for 10 days. 10 weeks old 129S2/SvPasCr male mice were randomly treated with Stattic and were compared to vehicle-treated (DMSO) littermates.
The glomerulonephritis was induced on male mice (10-12 weeks of age) by intravenous injection of 15 μL of sheep anti-glomerular basement membrane (GBM) nephrotoxic serum (NTS), which was diluted with 85 μL of sterile phosphate buffer solution. Serum injections were repeated twice (on days 2 and 3) at 6 μL/g of body weight and 7 μL/g respectively.
Mouse kidneys were extracted, minced, and digested in 2 mg/mL collagenase I solution (Gibco) in RPMI 1640 (Invitrogen) at 37° C. for 3 minutes, then filtered through a 70-μm cell strainer and one more through a 40-μm cell strainer. […] Podocyte outgrowth area was quantified at day 4 using ImageJ software.
After extraction from glomeruli or podocytes with lysis buffer, proteins were quantified by BCA protein assay kit (iNtRON Biotechnology). […] Protein loading was monitored by using the rat anti-tubulin antibody (Abeam). […] Densitometric analysis with ImageJ software was used for quantification.

| Molecule | STAT3 phosphorylation (Tyr705) in cultured primary podocytes [1] | EGFR phosphorylation in the kidney cortex [2] | STAT3 phosphorylation in podocytes [3] |
| --- | --- | --- | --- |
| COc1cc2ncnc(Nc3cccc(Cl)c3)c2cc1OC [AG1478] | blunted; also recorded: decreased | – | – |
| C#Cc1cccc(Nc2ncnc3cc(OCCOC)c(OCCOC)cc23)c1 [erlotinib] | – | efficiently blocked | blunted |
| B1 | enhanced | – | – |
